Measured values: patent publication US20260226035A1, “THIOCHROMAN DERIVATIVE AND PREPARATION METHOD THEREFOR AND USE THEREOF” (SHANGHAI INSTITUTE OF MATERIA MEDICA, CHINESE ACADEMY OF …, priority 2022, published 2026)
Where two headings read alike, the source gives them in different places. One block for each compound: values may come before it.

Legend:
ERα of uterine tissue = ERα of uterine tissue (Rattus norvegicus, UniProt P06211); conditions: in vivo, po
Procedure: HE experiment: 1) Cut the fixed uterine tissue into […] slices and place the slices in an oven for 1 hour; 2) Dewax the dried paraffin slices with conventional xylene, hydrate with gradient ethanol, and wash with distilled water; 3) Add hematoxylin to stain for 10 min to 30 min, then wash away the hematoxylin stain with running water; 4) Decolorize with 1% hydrochloric acid ethanol until the slices turn red and lighter in color, and then put them in running water to restore them to blue.

[1] = system: MCF-7 mouse subcutaneous tumor model; assay: Growth inhibition in MCF-7 mouse subcutaneous tumor model; type: in vivo, mice; conditions: p.o., QD; for mean tumour volume (mm^3), 21 days / TGI(%): 21 days; for TGI(%): LSZ102 15 mg/kg, Example 4 5 mg/kg
Excerpt: Experimental reagents: fetal bovine serum (SH30070.03) (FBS, Hyclone, Logan, UT, USA); penicillin ([…]) (Sigma, St. Louis, MO, USA); streptomycin (85886) (Sigma, St. Louis, MO, USA); recombinant human insulin (91077C) (Sigma, St. Louis, MO, USA); EMEM medium (30-2003) (ATCC, Rockville, MD, USA); trypsin (15090046) (Gibco, Grand Island, NY, USA); HBSS ([…]), DMSO (D8418), PEG400 (8074851000), PEG300 (8074841000), PBS (806552), Solutol HS-15 (42966) (Sigma, St. Louis, MO, USA); Matrigel Matrix (BD Bioscience, USA); estrogen pellets (0.36 mg estradiol, 60-day release) (SE-121) (Innovative Research of America, Florida, USA); […] StarSignal Western Protein Marker (10-200 kDa) (M227-01) (GenStar, Beijing, China); Ponceau red, Tween 20, acrylamide, sodium dodecyl sulfate, PMSF (Solon, OH, USA); protein blotting membrane regeneration solution (ZN1923, Biolab, Beijing, China); protein lysis buffer (RIPA), 1.5 mol/L Tris HCl (pH 6.8), 1.5 mol/L Tris HCl (pH 8.8) (Beyotime, Shanghai, China); ECL luminescent solution (Thermo Fisher Scientific, Pittsburgh, PA, USA); […] Goat Anti-Rabbit IgG H&L (HRP) (ab6721) purchased from Abcam (Abcam, Cambridge, UK). […] Cell culture conditions: […] When the cells were fused to 90%, the old medium was discarded, and the cells were washed twice with 2 ml PBS. […] When the cells became round, 2 ml complete medium was quickly added to terminate digestion, and the cells were gently blown and collected, and centrifuged at 800 rpm, 4° C. for 5 min. The supernatant was discarded, the cells were resuspended with complete medium, cultured in bottles, and the medium was changed every other day. […] LSZ102 (15 mg/kg) group: […] LSZ-102 is a selective estrogen receptor degrader developed by Novartis in the clinical research stage and is one of the earliest oral SERDs to enter clinical research; […] The tumor inhibition efficacy of the compound was evaluated by tumor growth inhibition rate TGI (%).

MCF-7 Tam1 cells = assay: Inhibition of tamoxifen-resistant MCF-7 Tam1 cell proliferation (CTG); type: cell-based; conditions: Homo sapiens, MCF7:TAM1, 120 h, read-out: IC50 (nM), inhibitory activity on tamoxifen-resistant cells MCF-7 Tam1
MCF-7 cells = assay: Inhibition of MCF-7 cell proliferation (CTG/ATP method); type: cell-based; conditions: for IC50: Homo sapiens, MCF7, 144 h, read-out: IC50 (nM), inhibitory activity on MCF-7 cell proliferation; for anti-tumor activity, times higher than SAR439859 / anti-tumor activity, times higher than fulvestrant: MCF-7 proliferation; for anti-tumor activity, times higher than SAR439859: vs SAR439859; for anti-tumor activity, times higher than fulvestrant: vs fulvestrant
Procedure: The purpose of this experiment is to determine the in vitro proliferation inhibitory effect of the compounds of the present invention on the commonly used breast cancer estrogen receptor-positive cells, MCF-7 cells, and to evaluate the in vitro activity of the compounds based on IC50. The inhibitory effect of the compounds of the present invention on the proliferation of MCF-7 cells was tested by the ATP method, specifically the CTG method. CellTiter-Glo, referred to as CTG, is a rapid homogenous detection method for determining the number of viable cells in culture by quantifying ATP. ATP is a key indicator of the metabolism of living cells. The homogenous detection makes the cell lysis and the generated luminescent signal proportional to the amount of ATP present, and the amount of ATP is directly proportional to the number of cells in the culture. The specific experimental method is as follows. […] The cells were cultured in a 37° C. incubator under 5% CO2. Cell passaging, recovery and cryopreservation were performed according to conventional methods. […] On the second day, the drug with concentration gradient was added, 10 μL per well. […] The 96-well plate was incubated in 5% CO2 at 37° C. for 6 days. 50 μL of CTG reagent was added to each well of the 96-well plate, and the plate was shaken on a shaker for 5 min, and then left at room temperature and protected from light for 10 min. 60 μL of CTG reagent was transferred to the 384-well Opti-plate. The luminescence signals were read by a multifunctional enzyme marker, and the signal intensity was used to characterize the number of viable cells. The data of each dosing group were normalized to 100% of the mean value of the control group, and the data were processed and analyzed by GraphPad Prism software.

in vivo = conditions: female, Sprague-Dawley (SD), rat, po, 10 mg/kg
[2] = Pharmacokinetics in rats, oral; type: in vivo, SD rats; conditions: rat, 10 mg/kg
Procedure: The purpose of this experiment is to test the pharmacokinetic properties of the compounds of the present invention in rats.
The solvent is 5% DMSO+5% Solutol+90% (0.5% MC), which is a colorless and clear dosing solution. The dosing method and dosage are: oral, 10 mg/kg. SD rats were randomly divided into groups according to body weight, fasted but not watered for 12-14 hours one day before dosing, and fed 4 hours after dosing. 0.1 mL of blood was collected from each animal through the eye socket each time, anticoagulated with EDTAK2, and the collection time points were: 0, 5, 15, 30 minutes, 1, 2, 4, 6, 8, 24 hours after administration of the test compound. After blood sample collection, it was placed on ice and centrifuged within 30 minutes to separate plasma (centrifugation conditions: 5000 rpm, 10 minutes, 4° C.). It was stored at −80° C. before analysis. The concentration of compounds in rat plasma was determined by LC-MS/MS. The data acquisition and control system software was Analyst 1.5.1 software (Applied Biosystem). The peak integration method of the chromatogram sample was automatic integration; the ratio of the sample peak area to the internal standard peak area was used as an indicator and regressed with the concentration of the sample. Regression method: linear regression, weight coefficient is 1/X^2. Pharmacokinetic parameters were analyzed and processed by WinNonlin Professional v6.3 (Pharsight, USA) using non-compartmental model. Cmax is the maximum measured blood drug concentration, the area under the blood drug concentration-time curve AUC (0→t) was calculated by the trapezoidal method, and Tmax is the time when the blood drug concentration reaches the peak after administration. Experimental data are expressed as “mean±standard deviation” (Mean±SD, n≥3) or “mean” (Mean, n=2).

ERα of uterine tissue, sequence (P06211 whole entry): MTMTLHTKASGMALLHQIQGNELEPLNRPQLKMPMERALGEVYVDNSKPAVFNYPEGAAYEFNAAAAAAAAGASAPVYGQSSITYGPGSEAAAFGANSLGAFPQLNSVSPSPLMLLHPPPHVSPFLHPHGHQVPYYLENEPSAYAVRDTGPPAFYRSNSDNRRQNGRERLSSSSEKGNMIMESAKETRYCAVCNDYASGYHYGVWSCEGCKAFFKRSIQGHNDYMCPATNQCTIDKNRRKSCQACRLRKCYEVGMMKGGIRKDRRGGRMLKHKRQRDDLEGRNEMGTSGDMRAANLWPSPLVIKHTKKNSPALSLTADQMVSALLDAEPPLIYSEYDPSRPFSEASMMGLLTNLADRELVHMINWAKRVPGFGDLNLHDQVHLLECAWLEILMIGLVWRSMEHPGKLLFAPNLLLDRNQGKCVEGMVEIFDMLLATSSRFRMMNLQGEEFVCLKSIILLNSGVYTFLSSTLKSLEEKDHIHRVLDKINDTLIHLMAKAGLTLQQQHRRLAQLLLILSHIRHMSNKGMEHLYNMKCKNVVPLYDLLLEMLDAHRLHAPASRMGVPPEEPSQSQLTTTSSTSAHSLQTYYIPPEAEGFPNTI

Compound: 4-hydroxytamoxifen
Mean body weight (ERα of uterine tissue): 43.9 g

Compound: COc1cc(F)ccc1[C@@H]1CSc2cc(O)ccc2[C@@H]1c1ccc(OCCN2CC(CF)C2)cc1 (relative stereo) [Example 4, Cis-3-(4-fluoro-2-methoxyphenyl)-4-(4-(2-(3-(fluoromethyl)azetidin-1-yl)ethoxy)phenyl)-7-hydroxythiochroman]
mean tumour volume (mm^3), 0 day [1]: 202 mm^3 | mean tumour volume (mm^3), 21 days [1]: 332 mm^3 | TGI(%) [1]: 78% | IC50 (MCF-7 Tam1 cells): 6.84 ± 1.4 nM

IC50 (MCF-7 cells; MCF-7, CTG, 6 days): 1.7 nM
Compound: COc1cc(F)ccc1C1CSc2cc(B(O)O)ccc2C1c1ccc(OCCN2CC(CF)C2)cc1 (stereo not drawn) [Example 10, Cis-(3-(4-fluoro-2-methoxyphenyl)-4-(4-(2-(3-(fluoromethyl)azetidin-1-yl)ethoxy)phenyl)thiochroman-7-boronic Acid]

Compound: COc1cc(F)ccc1[C@H]1CSc2cc(O)ccc2[C@H]1c1ccc(OCCN2CC(CF)C2)cc1 [Example 18, (3S,4R)-3-(4-fluoro-2-methoxyphenyl)-4-(4-(2-(3-(fluoromethyl)azetidin-1-yl)ethoxy)phenyl-)7-hydroxythiochroman]
concentration at 4 h (in vivo; brain): 17400 ng/g | Kp at 4 h (in vivo; brain/plasma): 14.1 | concentration at 4 h (in vivo; plasma): 1230 ng/mL | Tmax ([2]; Sprague-Dawley (SD), plasma): 3 h | half-life ([2]; Sprague-Dawley (SD), plasma): 8.92 h | MRTPO [2]: 13.4 h | AUC0-t ([2]; plasma): 1365 ng·h/mL | Cmax ([2]; plasma): 198 ng/mL | IC50 (MCF-7 Tam1 cells): 5.37 ± 0.42 nM | anti-tumor activity, times higher than SAR439859 (MCF-7 cells): 15.6 times | anti-tumor activity, times higher than fulvestrant (MCF-7 cells): 7.6 times

Compound: Oc1ccc2c(c1)SC[C@H](c1cc(F)c(F)cc1F)[C@@H]2c1ccc(OCCN2CC(CF)C2)cc1 [Example 19, (3S,4R)-4-(4-(2-(3-(fluoromethyl)azetidin-1-yl)ethoxy)phenyl)-3-(2,4,5-trifluorophenyl)-7-hydroxythiochroman]
anti-tumor activity, times higher than SAR439859 (MCF-7 cells): 15.6 times | anti-tumor activity, times higher than fulvestrant (MCF-7 cells): 7.6 times

Compound: C[C@]12CC[C@@H]3c4ccc(O)cc4C[C@@H](CCCCCCCCC[S+]([O-])CCCC(F)(F)C(F)(F)F)[C@H]3[C@@H]1CC[C@@H]2O (stereo partly drawn) [Fulvestrant, reference compound]
IC50 (MCF-7 cells): 1.9 nM

Compound: CC(F)(F)c1cc(F)ccc1-c1sc2cc(O)ccc2c1Oc1ccc(/C=C/C(=O)O)cc1 [LSZ102, reference compound]
mean tumour volume (mm^3), 0 day [1]: 200 mm^3 | mean tumour volume (mm^3), 21 days [1]: 345 mm^3 | TGI(%) [1]: 75%

IC50 (MCF-7 cells): 3.9 nM
Compound: O=C(O)c1ccc2c(c1)CCCC(c1ccc(Cl)cc1Cl)=C2c1ccc(O[C@H]2CCN(CCCF)C2)cc1 [SAR439859, reference compound]
